Legend:
[1] = system: Vero cell line (kidney cells from African green monkey); experiment: MTT cell viability assay, Vero normal cell line; assay type: cell-based; details: for Cytotoxic Concentration (CD50): Vero normal cell line, MTT, 72 h
Method: (§1) To assess the in vitro biocompatibility of the tested compounds, a series of cell viability assays were conducted on human cervical carcinoma cell lines (HeLa), as well as on normal Vero cells (kidney cells from the African green monkey). All cell lines were obtained from the German Collection of Microorganisms and Cell Cultures (DSMZ GmbH, Braunschweig, Germany). The cell cultures were maintained in DMEM (Dulbecco’s Modified Eagle Medium) (Gibco Thermofisher Scientific, 168 Third Avenue, Waltham, MA, USA, 02451) growth medium, supplemented with 10% fetal bovine serum (FBS, Sigma-Aldrich, Darmstadt, Germany) and 5% L-glutamine (Sigma-Aldrich, Darmstadt, Germany) and incubated under controlled conditions of 37 °C in a humidified atmosphere with 5% CO2.
(§2) The experimental approach included a series of cytotoxicity assays to determine the extent of cell proliferation inhibition by the synthesized complexes and their free ligands. Cell viability was quantified using a standard MTT-based colorimetric assay. Exponentially growing cells were harvested and seeded (100 μL per well) into 96-well plates at an appropriate density—3 × 10^5 for HeLa and Vero cells. The cells were exposed to various concentrations of the tested compounds, ranging from 0.0001 to 10 mg/mL, and incubated for 72 h.
(§3) Statistical significance was established at p ≤ 0.05.

[2] = system: HeLa cell line (human cervical carcinoma); experiment: MTT cell viability assay, HeLa tumor cell line; assay type: cell-based; details: for Cytotoxic Concentration (CD50): MTT, 72 h
Method: as §1, §2, §3

HeLa cell lines = details: cited from earlier work

With `Sc1ccnc(S)n1` [2,4-dithiouracil] the “Cytotoxic Concentration (CD50)” value [1] was 1.421 mM and the “Cytotoxic Concentration (CD50)” value [2] was 0.3167 mM.

In the case of `N.N.[Cl][Pt][Cl]` [Cisplatin], the “reduction in cell viability” value (HeLa cell lines; 0.15 mg/mL, 24 h, HeLa) is given as “about 10%”, the “concentration leading to a significant loss of cell viability” value (HeLa cell lines; HeLa, on average) is given as 0.003 mg/mL and the “concentration needed for complete inhibition of viability” value (HeLa cell lines; human cervical carcinoma cell line) is given as “higher than 1.5 mg/mL”.

For `N.N.O=C([O-])C1(C(=O)[O-])CCC1.[Pt+2]` [carboplatin], the “concentration yielding complete inhibition of cell viability” value (HeLa cell lines; HeLa) is listed as 1 mg/mL.

For `CCCc1cc(=O)[nH]c(=S)[nH]1` [6-propyl-2-thiouracil], the “Cytotoxic Concentration (CD50)” value [1] was 0.6068 mM, the “cytotoxic activity relative to 2,4-dithiouracil” value ([1]; normal cell line (Vero)) was “two times stronger” and the “cytotoxic activity relative to 2,4-dithiouracil” value [2] was “three times”. For the same compound, the “Cytotoxic Concentration (CD50)” value [2] was 0.0955 mM.
